Data from patent publication US20220323594A1, “LIPIDATED CATIONIC PEPTIDE-PEG COMPOSITIONS FOR NUCLEIC ACID DELIVERY” (NUTCRACKER THERAPEUTICS, INC., priority 2019, published 2022).

Tests used:
[1] = mRNA encapsulation by fluorescence of Qubit RNA HS dye before and after lysis with Triton X-100; format: physicochemical; settings: percentage of mRNA encapsulation; Fluc mRNA/peptoid formulation, 5:1 mass ratio
Procedure: (§1) The exemplary amino lipidated cationic peptoids described in Example 2 were combined with firefly luciferase (Fluc) mRNA to form nanoparticle compositions to be evaluated for therapeutic and/or prophylactic purposes in vitro or in vivo. The formulations were prepared according to the protocol of Example 3 and mixed by simple pipetting. The mRNA/peptoid formulation at a 5:1 mass ratio of peptoid:cargo were evaluated by dynamic light scattering (DLS) in order to determine the volume average particle size/diameter (nm) of the mRNA/peptoid complex and the size polydispersity index (PDI) within the formulation. The percentage of mRNA encapsulation for each formulation of the exemplary compounds were determined by fluorescence of the Qubit RNA HS (Invitrogen) dye before and after lysis of particles by Triton X-100.

[2] = MTT viability assay after treatment with Fluc mRNA/amino lipidated peptoid formulations; format: cell-based; settings: human, HeLa cells
Procedure: Cellular viability was measured following treatment with Fluc mRNA/amino lipidated peptoid formulations by a traditional MTT viability assay. […] In this assay, cells were first treated with peptoid formulations at a final mRNA concentration of 100 ng/well for 8 hours. Cells were then left to grow for 48 hours, after which time they were exposed to 1.5 mg/mL 3-(4,5-dimethylthiazol-2-yl)-2,5-diphenyltetrazolium bromide (MTT) for 2 hours, then lysed using a solubilizing solution of 10% Triton-X 100 in acidic isopropanol (0.1N HCl). The signal corresponding to reduced formazan was normalized to untreated cells to provide a relative viability of each treated condition. […] In general, nearly all conditions maintained at least 80% viability with the only exceptions being formulations of compound 5, 34, and 35.

[3] = test system: HeLa cells; test: In vitro Fluc expression with variable peptoid:mRNA mass ratio, 2% DMG-PEG2000; format: cell-based; settings: 24 h; for Observed Luciferase Expression (RLU) for Given Formulation Mass Ratio 2:1: 2% (w/w) DMG-PEG2000, peptoid:mRNA 2:1; for Observed Luciferase Expression (RLU) for Given Formulation Mass Ratio 3.5:1: 2% (w/w) DMG-PEG2000, peptoid:mRNA 3.5:1; for Observed Luciferase Expression (RLU) for Given Formulation Mass Ratio 5:1: 2% (w/w) DMG-PEG2000, peptoid:mRNA 5:1; for Observed Luciferase Expression (RLU) for Given Formulation Mass Ratio 7.5:1: 2% (w/w) DMG-PEG2000, peptoid:mRNA 7.5:1
Procedure: The charge ratio dependence of amino lipidated peptoid delivery vehicles was evaluated by formulating particles between Fluc mRNA and delivery vehicles at varying mass ratios. Formulations were varied between 2:1 and 7.5:1 peptoid:mRNA (w/w) ratios (2:1, 3.5:1, 5:1 and 7.5:1). In addition, the role of DMG-PEG2000 was also explored with the mass ratios, either by excluding DMG-PEG2000 or incorporating DMG-PEG2000 at 2% (w/w) relative to amino lipidated peptoid. Fluc expression from these formulations was measured in HeLa cells following treatment for 24 hours. […] FIGS. 6B and 6C show plots of the average bioluminescence (RLU) for HeLa cells treated with the formulations of exemplary amino lipidated cationic peptoid compounds 1-36, all formulated with 2% w/w DMG-PEG2000.

[4] = Dynamic light scattering (DLS) of mRNA/peptoid formulations: particle size and polydispersity; format: physicochemical; settings: Fluc mRNA/peptoid formulation; for Size PDI: size polydispersity index by DLS, 5:1 mass ratio; for Size (nm): volume average particle size/diameter by DLS, 5:1 mass ratio peptoid:cargo
Procedure: as §1, with “To prepare nanoparticle formulations, the amino lipidated peptoid is mixed by pipetting with nucleic acid at a mass ratio between approximately 1:1 (peptoid:cargo) and 20:1. Prior to formulation, amino lipidated peptoid and nucleic acid cargo were diluted in ethanol and acidic buffer (PBS adjusted to pH 5.5 with 0.1 M HCl) respectively to a volume ratio of 1:3 and to target a final cargo concentration of approximately 0.05 mg/mL to 0.2 mg/mL. The exemplary” for “The exemplary”

[5] = test system: HeLa cells; test: In vitro expression of firefly luciferase (Fluc) after treatment with Fluc mRNA/amino lipidated peptoid formulations, no PEG or 2% DMG-PEG2000; format: cell-based
Procedure: The efficacy of mRNA/amino lipidated peptoid formulations was evaluated in vitro based on their ability to deliver the firefly luciferase (Fluc) reporter gene to cultured cells. Amino lipidated peptoids were combined with Fluc mRNA at a 5:1 w/w ratio, and the resulting particles were added to cultured HeLa cells at a dose of 100 ng/well (in 100 μL total volume). The resulting luciferase expression (RLU) was measured by a luminescence plate reader after 6 hours and 24 hours of treatment. […] In addition to evaluating nanoparticle complexes formed between mRNA cargos and amino lipidated peptoids alone, multicomponent formulations containing a small amount of PEG-lipid DMG-PEG2000 were also tested for in vitro Fluc mRNA delivery. In these formulations, DMG-PEG2000 was pre-mixed with candidate peptoid at an overall 2% incorporation (w/w), while maintaining the same 5:1 mass ratio of peptoid:mRNA used previously.

[6] = no PEG, peptoid:Fluc mRNA 5:1 w/w, 100 ng/well, 6 h of treatment
[7] = no PEG, peptoid:Fluc mRNA 5:1 w/w, 100 ng/well, 24 h of treatment
[8] = with 2% (w/w) DMG-PEG2000, peptoid:mRNA 5:1, 6 h after treatment
[9] = with 2% (w/w) DMG-PEG2000, peptoid:mRNA 5:1, 24 h after treatment

| Compound | % Encapsulation [1] | viability at 8 h, 500 ng/well ([2]; Relative Viability (%) 2% PEG) | viability at 8 h, 500 ng/well ([2]; Relative Viability (%) No PEG) | Observed Luciferase Expression (RLU) for Given Formulation Mass Ratio 2:1 [3] | Observed Luciferase Expression (RLU) for Given Formulation Mass Ratio 3.5:1 [3] | Observed Luciferase Expression (RLU) for Given Formulation Mass Ratio 5:1 [3] | Observed Luciferase Expression (RLU) for Given Formulation Mass Ratio 7.5:1 [3] | Size PDI [4] | Size (nm) [4] | Luciferase Expression (RLU) 6 h [5, 6] | Luciferase Expression (RLU) 24 h [5, 7] | Luciferase Expression (RLU) 6 h [5, 8] | Luciferase Expression (RLU) 24 h [5, 9] |
| --- | --- | --- | --- | --- | --- | --- | --- | --- | --- | --- | --- | --- | --- |
| CCCCCCCCCCN(CC(N)=O)C(=O)CN(CCCCCCCCCC)C(=O)CN(CCCCCCCCCC)C(=O)CN(CCCCCCCCCC)C(=O)CN(CCc1ccccc1)C(=O)CN(CCc1ccccc1)C(=O)CN(CC1CCNCC1)C(=O)CN(CCc1ccccc1)C(=O)CN(CCc1ccccc1)C(=O)CN(CC1CCNCC1)C(=O)CN(CCc1ccccc1)C(=O)CN(CCc1ccccc1)C(=O)CN(CC1CCNCC1)C(=O)CN(CCc1ccccc1)C(=O)CN(CCc1ccccc1)C(=O)CNCC1CCNCC1 [Compound 32] | 50.9% | 102% | 90.7% | 1.82E+02 RLU | 3.09E+02 RLU | 3.77E+03 RLU | 3.37E+03 RLU | 0.274 | 247.5 nm | 4.25E+02 RLU | 2.00E+03 RLU | 4.82E+02 RLU | 3.40E+02 RLU |
| CCCCCCCCCCN(CC(N)=O)C(=O)CN(CCCCCCCCCC)C(=O)CN(CCCCCCCCCC)C(=O)CN(CCCCCCCCCC)C(=O)CN(CCc1ccccc1)C(=O)CN(CCc1ccccc1)C(=O)CN(CC1CCNCC1)C(=O)CN(CCc1ccccc1)C(=O)CN(CCc1ccccc1)C(=O)CN(CC1CCNCC1)C(=O)CN(CCc1ccccc1)C(=O)CN(CCc1ccccc1)C(=O)CNCC1CCNCC1 [Compound 31] | 35.7% | 98.4% | 83.8% | 2.07E+02 RLU | 5.70E+02 RLU | 3.77E+03 RLU | 2.05E+03 RLU | 0.404 | 348.5 nm | 5.84E+02 RLU | 2.93E+03 RLU | 4.30E+02 RLU | 2.63E+02 RLU |
| CCCCCCCCCCN(CC(=O)N(CCN)CC(=O)N(CCc1ccccc1)CC(=O)N(CCc1ccccc1)CC(=O)N(CCCCCCCCCC)CC(=O)N(CCN)CC(=O)N(CCc1ccccc1)CC(=O)N(CCc1ccccc1)CC(N)=O)C(=O)CN(CCc1ccccc1)C(=O)CN(CCc1ccccc1)C(=O)CNCCN [Compound 17] | 90.3% | 91.7% | 88% | 2.72E+03 RLU | 1.56E+03 RLU | 1.60E+03 RLU | 3.75E+01 RLU | 0.37 | 472.8 nm | 6.84E+02 RLU | 5.63E+02 RLU | 8.67E+01 RLU | 1.80E+02 RLU |
| CCCCCCCCCCN(CC(N)=O)C(=O)CN(CCCCCCCCCC)C(=O)CN(CCN)C(=O)CN(CCN)C(=O)CN(CCN)C(=O)CN(CCN)C(=O)CNCCN [Compound 15] | 76.9% | 91.9% | 91.2% | 8.85E+01 RLU | 3.62E+01 RLU | 2.01E+01 RLU | 6.70E+00 RLU | 1 | 1064 nm | 3.93E+01 RLU | 1.90E+01 RLU | 5.33E+00 RLU | 5.33E+00 RLU |
| CCCCCCCCCCNCC(=O)N(CCN)CC(=O)N(CCc1ccccc1)CC(=O)N(CCc1ccccc1)CC(=O)N(CCN)CC(=O)N(CCc1ccccc1)CC(=O)N(CCc1ccccc1)CC(=O)N(CCN)CC(=O)N(CCc1ccccc1)CC(=O)N(CCc1ccccc1)CC(=O)N(CCCCCCCCCC)CC(N)=O [Compound 18] | 88.5% | 89.3% | 86.1% | 1.53E+03 RLU | 3.00E+03 RLU | 9.99E+02 RLU | 2.41E+01 RLU | 0.762 | 593 nm | 5.74E+02 RLU | 8.49E+02 RLU | 8.50E+01 RLU | 1.22E+02 RLU |
